Where two headings read alike, the source gives them in different places.
Test system: rats
Experiment: Reversal of the effect of the mGluR2 PAM JNJ-42153605-induced inhibition of scopolamine-induced hyperlocomotion
Type: in vivo
Details: Rattus norvegicus, PO
Method: 2) Reversal of the Effect of the mGluR2 PAM JNJ-42153605-induced Inhibition of Scopolamine-induced Hyperlocomotion Apparatus
Motor activity was measured in microprocessor-based motor activity arenas (closed gray PVC cylinders with a height of 39 cm and a diameter of 31 cm). Each arena was placed on an infrared LED (8×8 LEDs) lit box (white PVC squared box; 40×40 cm^2; height 12.5 cm. An infrared-sensitive tube camera and a white light source were mounted to the ceiling above the observation chamber to track the animal. The total distance traveled (cm) was recorded and analyzed using the Noldus Ethovision XT Video Tracking System (Version 7.0.418; Noldus, Wageningen, The Netherlands). The intensity of the light within the activity cages (measured in the centre at the level of the floor) ranged between 4 and 8 LUX.
The rats were pretreated with test compound or vehicle at 60 min before the start of the activity recordings and placed into individual cages. The rats were challenged with JNJ-42153605 (3-(cyclopropylmethyl)-7-(4-phenylpiperidin-1-yl)-8-(trifluoromethyl)-[1,2,4]triazolo[4,3-a]pyridine; WO2010/130424; Cid et al. J. Med. Chem. 2012, 55, 8770-8789) (20 mg/kg, i.v.) 30 min before the start of the activity recording combined with scopolamine (0.16 mg/kg, i.v.) just before the start of the activity measurements. Immediately after the injection of scopolamine, the rats were placed into the activity monitors and total distance traveled over the first 30 min was measured.
Solvent-pretreated Control Rats.
Animals receiving the combination of JNJ-42153605 and scopolamine (n=433) almost always traveled a distance of less than 1500 cm (<1500 cm) (only 2.5% of the control rats traveled a distance of more than 1500 cm (>1500 cm)). On the other hand, animals challenged with scopolamine alone (n=215) always traveled a total distance of more than 1500 cm (>1500 cm) and almost always (in 95.8% of the rats) a distance of more than 4400 cm (>4400 cm). […] For reversal of the inhibitory effect of JNJ-42153605 on the scopolamine-induced hyperlocomotion, the following all-or-none criteria were adopted: (1) reversal: total distance>1500 cm.

Cc1ncc(-c2cnn3c2C(=O)N(c2ccc(C(F)(F)F)c(Cl)c2)C[C@@H]3C)[nH]1 [Compound 27]
ED50 (criterion for reversal: total distance >1500 cm, read-out: ED50 SCOP JNJ-42153605): > 2.5 mg/kg
ED50 (more sensitive criterion for reversal: total distance >1300 cm, read-out: ED50 SCOP JNJ-42153605, more sensitive criterion): 1.25 mg/kg

From US10072014B2 (Janssen Pharmaceutica NV, priority 2014, dated 2018)
